Assay results taken from publication PMC6270562, “Design, Synthesis and Trypanocidal Evaluation of Novel 1,2,4-Triazoles-3-thiones Derived from Natural Piperine” (Molecules, 2013).

Columns and labels:
[1] = test system: epimastigote form of Y strain T. cruzi; assay: Anti-epimastigote effect (direct count of live epimastigotes after 7 days); format: cell-based, Trypanosoma cruzi; details: mean of triplicate
Method: (§1) Trypanosoma cruzi (Y strain) was obtained from the Fundação Oswaldo Cruz (Rio de Janeiro, Brazil) culture collection, and maintained in the Laboratory of Glycobiology (UFRJ, Rio de Janeiro, Brazil) facilities. Epimastigote forms were maintained by weekly transfers at 28 °C in brain-heart-infusion (BHI) medium (Acumedia, Lansing, MI, USA), supplemented with 10 mg of hemin (Sigma, St. Louis, MO, USA), 20 mg of folic acid L^−1 (Sigma) and 10% heat-inactivated fetal calf serum (FCS) (BHI-FCS medium, Gibco, Grand Island, NY, USA). Tissue culture-derived trypomastigotes were obtained after infection of confluent monolayers of Vero cells (kidney epithelial cells extracted from African green monkeys) with blood trypomastigotes (Y strain) to establish the intracellular cycle and maintained in RPMI 1640 medium containing 10% FCS under an atmosphere of 5% CO2 at 37 °C. The tissue culture-derived trypomastigotes were used to infect Mø in vitro to evaluate the toxic effects of the drugs.
For evaluation of the anti-epimastigote effects, parasites (1 × 10^5 cells per mL) were subcultured in the absence or presence of different concentrations (0.5 to 25 μg.mL^−1) of the drugs 9a–9m, from a 5 mg mL^−1 stock solution in DMSO (Sigma). The parasites were incubated in BHI-FCS medium with or without drugs in a final volume of 1.0 mL in 24-well plates (TPP, Trasadingen, Switzerland), and after 7 days, the toxic effects of the drugs were quantified by the direct count of the live epimastigotes in a Neubauer chamber.
(§2) The 50% inhibitory concentrations (IC50) values shown in the Table 1 represent the mean of experiments carried out in triplicate. The IC50 of all compounds were determined by linear regression analysis using the program IGOR Pro 2.03 (WaveMetrics, Inc, Lake Oswego, OR, USA).

amastigotes of T. cruzi = assay: Anti-amastigote effect in infected peritoneal macrophages; format: cell-based; details: Trypanosoma cruzi, Peritoneal macrophage, in Mus musculus; T. cruzi Y strain, intracellular amastigotes in BALB/c peritoneal Mø, 0.5-5.0 µg mL−1; ≥ = maximum concentration allowed by trypan blue exclusion assay
Method: as §1
Resident peritoneal Mø from non-infected BALB/c mice were harvested and cultured as described above. Adhered Mø were infected with T. cruzi trypomastigotes at a 10:1 parasite/macrophage ratio and incubated at 37 °C under 5% CO2 for 1 h. […] After, monolayers were washed with PBS at 37 °C, fixed in methanol, and stained with Giemsa (Sigma). The amastigote survival was determined by the counting of 200 cells in triplicate, the percentage of infected cells was analyzed, as well as the number of amastigotes per macrophage and the endocytic index of the infected cells.
as §2

[2] = test system: peritoneal macrophages (Mø) from Balb/c mice; assay: Cytotoxicity to macrophages (trypan blue dye exclusion assay); format: cell-based; details: murine macrophages, 0.5-5 μg mL−1, 72 h
Method: The evaluation of the toxic effects of the compounds was carried out as previously described. Murine peritoneal Mø were seeded (1 × 10^6 cells per well) in 24-well plates with 1 mL of RPMI medium containing 10% FCS. […] The five drugs were assayed in increasing concentrations (0.5, 1.0, 2.5, 5.0 µg mL^−1). Afterwards, the cells were washed with PBS, and RPMI was added to the culture before the addition of vital dye trypan blue in a final concentration of 0.01%. The toxic effects of the drugs were monitored by the count of 200 cells in a Neubauer chamber where plasma membrane permeability was evaluated.

| SMILES | melting point [°C] | IC50 ([1]; Trypanosoma cruzi, 168 h) [µM] | IC50 (amastigotes of T. cruzi) [µM] | IC50 [1] [µM] | toxicity on host cells [2] |
| --- | --- | --- | --- | --- | --- |
| Cn1c(/C=C/C=C/c2ccc3c(c2)OCO3)n[nH]c1=S [9a, 5-[(1E,3E)-4-(1,3-Benzodioxol-5-yl)buta-1,3-dien-1-yl]-4-methyl-2,4-dihydro-3H-1,2,-triazole-3-thione] | 220 to 222 | 44.2 ± 7.3 | – | – | – |
| CCn1c(/C=C/C=C/c2ccc3c(c2)OCO3)n[nH]c1=S [9b, 5-[(1E,3E)-4-(1,3-Benzodioxol-5-yl)buta-1,3-dien-1-yl]-4-ethyl-2,4-dihydro-3H-1,2,4-triazole-3-thione] | 208 to 209 | 50.2 ± 10.8 | – | – | – |
| CC(C)n1c(/C=C/C=C/c2ccc3c(c2)OCO3)n[nH]c1=S [9c, 5-[(1E,3E)-4-(1,3-Benzodioxol-5-yl)buta-1,3-dien-1-yl]-4-isopropyl-2,4-dihydro-3H-1,2,4-triazole-3-thione] | 210 to 211 | < 30 | 11.1 ± 1.26 | 27 ± 6.98 | – |
| CCCCn1c(/C=C/C=C/c2ccc3c(c2)OCO3)n[nH]c1=S [9d, 5-[(1E,3E)-4-(1,3-Benzodioxol-5-yl)buta-1,3-dien-1-yl]-4-butyl-2,4-dihydro-3H-1,2,4-triazole-3-thione] | 173 to 174 | – | ≥ 15.2 | – | – |
| CCCCCCn1c(/C=C/C=C/c2ccc3c(c2)OCO3)n[nH]c1=S [9e, 5-[(1E,3E)-4-(1,3-Benzodioxol-5-yl)buta-1,3-dien-1-yl]-4-hexyl-2,4-dihydro-3H-1,2,4-triazole-3-thione] | 124 to 125 | < 30 | ≥ 14 | 15.4 ± 4.47 | – |
| S=c1[nH]nc(/C=C/C=C/c2ccc3c(c2)OCO3)n1C1CCCCC1 [9f, 5-[(1E,3E)-4-(1,3-Benzodioxol-5-yl)buta-1,3-dien-1-yl]-4-cyclohexyl-2,4-dihydro-3H-1,2,4-triazole-3-thione] | 192 to 194 | < 30 | 8.87 ± 2.39 | 18.3 ± 5.21 | low toxic effects |
| S=c1[nH]nc(/C=C/C=C/c2ccc3c(c2)OCO3)n1-c1ccccc1 [9g, 5-[(1E,3E)-4-(1,3-Benzodioxol-5-yl)buta-1,3-dien-1-yl]-4-phenyl-2,4-dihydro-3H-1,2,4-triazole-3-thione] | 244 to 245 | 39 ± 8.88 | – | – | – |
| S=c1[nH]nc(/C=C/C=C/c2ccc3c(c2)OCO3)n1Cc1ccccc1 [9h, 5-[(1E,3E)-4-(1,3-Benzodioxol-5-yl)buta-1,3-dien-1-yl]-4-benzyl-2,4-dihydro-3H-1,2,4-triazole-3-thione] | 187 to 188 | 39.4 ± 6.88 | – | – | – |
| COc1cc(-n2c(/C=C/C=C/c3ccc4c(c3)OCO4)n[nH]c2=S)cc(OC)c1OC [9i, 5-[(1E,3E)-4-(1,3-Benzodioxol-5-yl)buta-1,3-dien-1-yl]-4-(3,4,5-trimethoxyphenyl)-2,4-dihydro-3H-1,2,4-triazole-3-thione] | 242 to 243 | 35.3 ± 6.26 | – | – | – |
| CC(C)(C)n1c(/C=C/C=C/c2ccc3c(c2)OCO3)n[nH]c1=S [9j, 5-[(1E,3E)-4-(1,3-Benzodioxol-5-yl)buta-1,3-dien-1-yl]-4-tert-butyl-2,4-dihydro-3H-1,2,4-triazole-3-thione] | 183 to 184 | 50.8 ± 10.6 | – | – | – |
| CSc1ccc(-n2c(/C=C/C=C/c3ccc4c(c3)OCO4)n[nH]c2=S)cc1 [9k, 5-[(1E,3E)-4-(1,3-Benzodioxol-5-yl)buta-1,3-dien-1-yl]-4-[4-(methylthio)phenyl]-2,4-dihydro-3H-1,2,4-triazole-3-thione] | 209 to 211 | 40.8 ± 10.5 | – | – | – |
| COc1cccc(-n2c(/C=C/C=C/c3ccc4c(c3)OCO4)n[nH]c2=S)c1 [9l, 5-[(1E,3E)-4-(1,3-Benzodioxol-5-yl)buta-1,3-dien-1-yl]-4-(3-methoxyphenyl)-2,4-dihydro-3H-1,2,4-triazole-3-thione] | 248 to 249 | 48 ± 6.06 | – | – | – |
| FC(F)(F)c1ccc(-n2c(/C=C/C=C/c3ccc4c(c3)OCO4)n[nH]c2=S)cc1 [9m, 5-[(1E,3E)-4-(1,3-Benzodioxol-5-yl)buta-1,3-dien-1-yl]-4-[4-(trifluoromethyl)phenyl]-2,4-dihydro-3H-1,2,4-triazole-3-thione] | 232 to 233 | < 30 | 9.59 ± 2.87 | 18.5 ± 3.95 | – |
| O=C(Cn1ccnc1[N+](=O)[O-])NCc1ccccc1 [Benznidazole, benznidazole, reference compound] | – | 2.2 ± 0.16 | 2.5 ± 0.21 | – | – |
